Experimental data reported in US10583103B2, “Method of treating heart failure with preserved ejection fraction with probenecid” (University Of Cincinnati, priority 2013, dated 2020).
Like-named read-outs stand apart in the source and are kept apart here.

Key:
[1] = test system: thoracic aortae of TRPV2−/− mice; test: Vascular smooth muscle reactivity in isolated aorta (DMT myograph), TRPV2 knockout; parameters: species or system mouse; developed tension: dose or concentration left out as unconfirmed; conditions: for EC50: Mus musculus, phenylephrine pre-contracted, read-out: EC50 for the relaxing effect
[2] = test system: thoracic aortae of wild type mice; test: Vascular smooth muscle reactivity in isolated aorta (DMT myograph), wild type; parameters: species or system mouse; conditions: for EC50: Mus musculus, phenylephrine pre-contracted, read-out: EC50 for the relaxing effect
isolated aortae = test: Vasoconstrictor effect of probenecid in isolated aortae (cumulative concentration-force relationship); parameters: species or system mouse
TRPV2−/− mice = test: Invasive cardiac hemodynamics in intact anesthetized mice (LV pressure development), TRPV2 knockout; assay type: in vivo, mouse; conditions: probenecid 30 and 100 μg/g i.v. bolus
Method: (§1) All animal procedures were performed with the approval of the Institutional Animal Care and Use Committee (IACUC) of the University of Cincinnati and in accordance with the Guide for the Care and Use of Laboratory Animals (NIH, revised 1996). All wild type (WT) mice (B6129SF2/J F2 and C57BL6J, Jackson laboratories) and TRPV2^−/− mice (breeding pairs provided by Dr. M. Caterina, John's Hopkins, Baltimore, Md.) were males at 12-16 weeks of age (REF). Prior to experiments, mice were maintained on normal rodent chow and water ad libitum, and on a 14 hr/10 hr light/dark cycle (6 AM to 8 PM).
Measurements of left ventricular performance and regional blood flow were performed in separate groups of WT and TRPV2^−/− mice as previously described {Lorenz, 2008#1}. […] A tracheotomy was performed (PE-90), and body temperature was monitored and maintained with a feedback-controlled heating table. […] Pressure, flow, and ECG signals were recorded and analyzed using a PowerLab system (ADInstruments). […] Maximum dP/dt (dP/dtmax) and dP/dt at 40 mmHg of developed pressure (dP/dt40) were calculated from the first derivative of the pressure waveforms. Cerebral vascular resistance (CVR) was calculated from recorded channels of mean arterial pressure and mean cerebral blood flow (CVR=MAP/CBF). […]

WT mice = test: Invasive cardiac hemodynamics in intact anesthetized mice (LV pressure development), wild type; assay type: in vivo, mouse
Method: as §1
Measurements of left ventricular performance and regional blood flow were performed in separate groups of WT and TRPV2^−/− mice as previously described {Lorenz, 2008#1}. Briefly, mice were anesthetized with an intraperitoneal injection of ketamine (50 μg/gBW) and inactin (thiobutabarbital, 100 μg/gBW, Sigma, MA). A tracheotomy was performed (PE-90), and body temperature was monitored and maintained with a feedback-controlled heating table. The right femoral artery was cannulated with fluid-filled polyethylene tubing for measurement of blood pressure and connected to a low compliance pressure transducer (COBE Cardiovascular, Arvada, Colo.). The right femoral vein was cannulated for delivery of drugs. A high fidelity, 1.2F Scisense pressure catheter (Scisense, London, ON, Canada) was inserted into the right carotid artery and advanced into the left ventricle to monitor cardiac performance. ECG leads were placed on the right and left arms, and left leg and connected to a BIOAmp (ADInstruments, Colorado Springs, Colo.). For carotid blood flow measurements, the left carotid artery was isolated and fitted with a 0.5-PSB perivascular flow probe connected to a TS420 flow meter (Transonic Systems, Ithaca, N.Y.). Pressure, flow, and ECG signals were recorded and analyzed using a PowerLab system (ADInstruments). Hemodynamic measurements were taken at the basal state and after the administration of 30 and 100 μg/g doses of probenecid i.v., with 5 minutes between each dose (100 μg/μl delivered as 0.3 and 1.0 μl/gBW bolus). Measurements were taken from the final 30-40 seconds of each dosage period. Maximum dP/dt (dP/dtmax) and dP/dt at 40 mmHg of developed pressure (dP/dt40) were calculated from the first derivative of the pressure waveforms. Cerebral vascular resistance (CVR) was calculated from recorded channels of mean arterial pressure and mean cerebral blood flow (CVR=MAP/CBF).
Statistical analysis was performed by analysis of variance (ANOVA) using either a single factor within-subjects design, or a two- or three-factor mixed design with repeated measures as appropriate. Individual contrasts were used to compare group effects and interactions when needed, and the Tukey post-hoc test was used to compare individual means where appropriate (SigmaStat v3.5, Point Richmond, Calif.). Data are presented as means±S.E.M., and differences were regarded as significant at P<0.05.

TRPV2 = molecular target: T1, TRPV2 (Homo sapiens, UniProt Q9Y5S1); conditions: cited from earlier work
T1 sequence (Q9Y5S1 1-764): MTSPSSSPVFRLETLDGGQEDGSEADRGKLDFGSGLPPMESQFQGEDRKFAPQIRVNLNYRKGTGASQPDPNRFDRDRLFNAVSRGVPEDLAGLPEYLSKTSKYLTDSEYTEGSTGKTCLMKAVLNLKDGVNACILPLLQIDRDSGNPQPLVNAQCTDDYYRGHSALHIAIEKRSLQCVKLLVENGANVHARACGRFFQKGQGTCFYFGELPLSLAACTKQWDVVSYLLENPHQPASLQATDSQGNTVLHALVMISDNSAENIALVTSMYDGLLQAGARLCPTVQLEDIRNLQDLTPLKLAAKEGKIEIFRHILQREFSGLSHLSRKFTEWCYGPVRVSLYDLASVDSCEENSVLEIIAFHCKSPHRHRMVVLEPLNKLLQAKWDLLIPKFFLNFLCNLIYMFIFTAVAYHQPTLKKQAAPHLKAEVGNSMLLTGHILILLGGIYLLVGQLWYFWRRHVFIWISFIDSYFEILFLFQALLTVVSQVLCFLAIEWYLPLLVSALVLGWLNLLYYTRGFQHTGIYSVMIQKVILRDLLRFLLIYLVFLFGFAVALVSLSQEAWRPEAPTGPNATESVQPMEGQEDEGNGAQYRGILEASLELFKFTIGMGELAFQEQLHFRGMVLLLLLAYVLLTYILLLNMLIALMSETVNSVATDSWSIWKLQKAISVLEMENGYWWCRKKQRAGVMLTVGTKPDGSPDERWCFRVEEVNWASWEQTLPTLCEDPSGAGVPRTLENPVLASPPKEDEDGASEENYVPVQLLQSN

[3] = test system: isolated WT cardiomyocytes; conditions: putatively through TRPV2 stimulation; cited from earlier work
[4] = endothelium-denuded (−E), pre-contracted with 3 mM phenylephrine

With `CNC[C@H](O)c1cccc(O)c1` [phenylephrine] as the compound, how does the “maximal developed tension in response to phenylephrine” value (from here on “maximal developed tension in response”) ([1]; endothelium-denuded (−E), n=8) read?
The value was 6.07±0.55 mN.

What about the “maximal developed tension in response” value ([1]; intact endothelium (+E)) of the same compound?
The value was 1.75±0.25 mN.

And the “maximal developed tension in response” value ([2]; endothelium-denuded (−E), n=8)?
The value was 5.99±0.74 mN.

And the “maximal developed tension in response” value ([2]; intact endothelium (+E))?
Its value is 1.45±0.12 mN.

With `CCCN(CCC)S(=O)(=O)c1ccc(C(=O)O)cc1` [probenecid] as the compound, how does the vasoactive effect (isolated aortae; low and high doses, even in deendothelialized vessels (discussion)) read?
The vasoactive effect was “no significant vasoactive effect”.

What about the “vasoconstrictor effect (force production)” value (isolated aortae; with or without intact endothelium, concentrations as high as 10 mM) of the same compound?
Its value is “no evidence was found of increased force production”.

What about the EC50 ([1]; intact endothelium (+E)) of the same compound?
Its EC50 is 0.52 ± 0.11 mM.

What about the EC50 ([1]; without endothelium (−E)) of the same compound?
The EC50 was 4.59 ± 0.52 mM.

What about the “dilatory response, concentration threshold” value [1, 4] of the same compound?
The value was “no significant dilatory response until a concentration of 1 mM”.

And the developed tension ([1]; endothelium-denuded (−E), pre-contracted with phenylephrine)?
The developed tension was “about 25 % of maximum”.

And the “contractile function (LV dP/dtmax, dP/dt40), effect relative to WT” value (TRPV2−/− mice)?
Its value is “markedly attenuated”.

And the lusitropy (WT mice; WT mice, low (30 mg/kg) and high (100 mg/kg) doses)?
Its lusitropy is “increased lusitropy”.

And the “contractile function (LV dP/dtmax, dP/dt40)” value (WT mice; WT mice, probenecid 30 and 100 μg/g i.v. bolus)?
Its value is “robust stimulation of contractile function”.

What about the “time to maximal effect on LV dP/dt” value (WT mice; after i.v. bolus administration) of the same compound?
Its value is “maximal within one minute”.

What about the “duration of stable effect on LV dP/dt” value (WT mice; after i.v. bolus administration, at the time of reported measurement) of the same compound?
Its value is “at least 5 minutes”.

What about the “cardiac relaxation and diastolic function” value (WT mice; rodents, summary statement) of the same compound?
Its value is “improved cardiac relaxation and improved diastolic function”.

And the TRPV2 agonist activity (TRPV2)?
Its TRPV2 agonist activity is “selective agonist of TRPV2”.

What about the EC50 ([2]; intact endothelium (+E)) of the same compound?
Its EC50 is 0.67 ± 0.21 mM.

What about the EC50 ([2]; without endothelium (−E)) of the same compound?
Its EC50 is 4.56 ± 0.34 mM.

What about the “dilatory response, concentration threshold” value [2, 4] of the same compound?
Its value is “no significant dilatory response until a concentration of 1 mM”.

And the “developed tension at 10 mM probenecid” value ([2]; endothelium-denuded (−E), pre-contracted with phenylephrine, 10 mM)?
The value was “about 25 % of maximum”.

What about the “cytosolic Ca2+ concentrations and Ca2+ sparks” value [3] of the same compound?
Its value is “increases cytosolic Ca^2+ concentrations and increased Ca^2+ sparks”.
